Results reported in patent publication EP2185126B1, “USE OF TROXERUTIN TO QUENCH THE FLUORESCENCE OF DISODIUM PHENYL DIBENZIMIDAZOLE TETRASULFONATE” (Symrise AG, priority 2007, dated 2007).

Columns and labels:
[1] = Colour and colour stability of emulsion on storage; assay type: physicochemical; settings: emulsion prepared with the substance
Solubility in water = assay type: physicochemical

C[C@@H]1O[C@@H](O[C@H]2[C@H](Oc3cc(O)c4c(c3)O[C@H](c3ccc(O)cc3)CC4=O)O[C@H](CO)[C@@H](O)[C@@H]2O)[C@H](O)[C@H](O)[C@H]1O [naringin]
colour / colour stability of emulsion [1]: less susceptible to colouration problems than other flavone derivatives
solubility in water (Solubility in water): poorly soluble in water

O=c1c(O)c(-c2ccc(O)c(O)c2)oc2cc(O)cc(O)c12 [quercetin]
colour / colour stability of emulsion [1]: deeply yellow in colour

C[C@@H]1O[C@@H](OC[C@H]2O[C@@H](Oc3c(-c4ccc(O)c(O)c4)oc4cc(O)cc(O)c4c3=O)[C@H](O)[C@@H](O)[C@@H]2O)[C@H](O)[C@H](O)[C@H]1O [rutin]
colour / colour stability of emulsion [1]: beige in colour and on storage turns dark brown

COc1ccc([C@@H]2CC(=O)c3c(O)cc(O[C@@H]4O[C@H](CO[C@@H]5O[C@@H](C)[C@H](O)[C@@H](O)[C@H]5O)[C@@H](O)[C@H](O)[C@H]4O)cc3O2)cc1O [hesperidin]
colour / colour stability of emulsion [1]: less susceptible to colouration problems than other flavone derivatives
solubility in water (Solubility in water): poorly soluble in water

C[C@@H]1O[C@@H](OC[C@H]2O[C@@H](Oc3c(-c4ccc(OCCO)c(OCCO)c4)oc4cc(OCCO)cc(O)c4c3=O)[C@H](O)[C@@H](O)[C@@H]2O)[C@H](O)[C@H](O)[C@H]1O [troxerutin, 7,3',4'-tris[O-(2-hydroxyethyl)]rutin]
colour / colour stability of emulsion [1]: long term colour stability
solubility in water (Solubility in water): ease of solubility in water
